In patent US10508109B2 (priority 2015, dated 2019):
Where a name gives a salt, the structure may show the parent alone. Read-outs that look alike come from different tables or passages of the source.

Columns and labels:
A549 = experiment: Cell-based assay, anti-proliferative activity (Cell Counting Kit-8, 72 hours); conditions: Homo sapiens, read-out: IC50 (μM) A549
Outline: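 IC50 values come from growth read-outs taken after the cells' exposure to each candidate inhibitor. Cells had been plated in 96-well microtiter plates beforehand.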

CCD-18Co = experiment: as above; conditions: Homo sapiens, read-out: IC50 (μM) CCD-18Co
Outline: (§1)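 Cells seeded at 2,000–3,000 per well and exposed 72 h to compound at 0–100 micro-M (2-fold series). Growth measured with CCK-8; IC50 taken as anti-proliferative indicator.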

HCT-116 = experiment: as above; conditions: Homo sapiens, read-out: IC50 (μM) HCT-116
Outline: as §1

HFL1 = experiment: as above; conditions: Homo sapiens, read-out: IC50 (μM) HFL1
Outline: as §1

PC14 = experiment: as above; conditions: Homo sapiens, read-out: IC50 (μM) PC14
Outline: as §1

SUV39H2 = SUV39H2 (Homo sapiens (Human), UniProt Q9H5I1); conditions: read-out: IC50 (μM) Suv 39H2 assay
SUV39H2, sequence (Q9H5I1 whole entry): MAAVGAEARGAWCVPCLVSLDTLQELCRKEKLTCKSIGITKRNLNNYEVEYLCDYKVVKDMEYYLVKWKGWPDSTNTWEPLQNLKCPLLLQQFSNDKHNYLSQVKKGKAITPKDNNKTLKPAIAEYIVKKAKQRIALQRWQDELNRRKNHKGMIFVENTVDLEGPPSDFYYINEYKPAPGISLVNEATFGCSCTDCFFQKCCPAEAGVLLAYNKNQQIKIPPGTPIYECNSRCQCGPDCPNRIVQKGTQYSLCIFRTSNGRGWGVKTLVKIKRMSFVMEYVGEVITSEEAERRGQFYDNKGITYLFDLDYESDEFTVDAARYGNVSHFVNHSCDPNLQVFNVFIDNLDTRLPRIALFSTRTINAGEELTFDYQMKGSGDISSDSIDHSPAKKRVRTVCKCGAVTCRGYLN

[1] = A549 cells, 72 hours, Cell Counting Kit-8
[2] = CCD-18Co cells, 72 hours, Cell Counting Kit-8
[3] = HCT-116 cells, 72 hours, Cell Counting Kit-8
[4] = HFL1 cells, 72 hours, Cell Counting Kit-8
[5] = PC-14, PC14 cells, 72 hours, Cell Counting Kit-8
[6] = A549 cells, Cell Counting Kit-8, 72 hours
[7] = CCD-18Co cells, Cell Counting Kit-8, 72 hours
[8] = HCT-116 cells, Cell Counting Kit-8, 72 hours
[9] = HFL1 cells, Cell Counting Kit-8, 72 hours
[10] = PC-14, PC14 cells, Cell Counting Kit-8, 72 hours

| Structure (SMILES) | IC50 (A549; A549, 72 h) | IC50 (CCD-18Co; CCD-18Co, 72 h) | IC50 (HCT-116; HCT-116, 72 h) | IC50 (HFL1; HFL1, 72 h) | IC50 (PC14; PC-14, 72 h) | IC50 (SUV39H2; enzyme assay) | IC50 (A549; [1]) | IC50 (CCD-18Co; [2]) | IC50 (HCT-116; [3]) | IC50 (HFL1; [4]) | IC50 (PC14; [5]) | IC50 (A549; [6]) | IC50 (CCD-18Co; [7]) | IC50 (HCT-116; [8]) | IC50 (HFL1; [9]) | IC50 (PC14; [10]) | IC50 (SUV39H2) |
| --- | --- | --- | --- | --- | --- | --- | --- | --- | --- | --- | --- | --- | --- | --- | --- | --- | --- |
| COc1cc(OC)c(-c2cn3cc(NCCNC(C)=O)c(N4CCOCC4)cc3n2)cc1Cl [Example 224, N-(2-((2-(5-chloro-2,4-dimethoxyphenyl)-7-morpholinoimidazo[1,2-a]-pyridin-6-yl)amino)ethyl)acetamide] | 10 µM | 10 µM | 10 µM | 10 µM | 10 µM | 0.0337 µM |  |  |  |  |  |  |  |  |  |  |  |
| COc1cc(OC)c(-c2cn3ccc(N4CCNC(CO)C4)cc3n2)cc1Cl (stereo not drawn) [Example 235, (4-(2-(5-chloro-2,4-dimethoxyphenyl)imidazo[1,2-a]pyridin-7-yl)-piperazin-2-yl)methanol] |  |  |  |  |  | 0.0115 µM | 5.3 µM | 6.7 µM | 6.6 µM | 4.3 µM | 5.6 µM |  |  |  |  |  |  |
| COc1cc(OC)c(-c2cn3ccc(C4=CCN(CCN5CCCCC5)CC4)cc3n2)cc1Cl [Example 147, 2-(5-chloro-2,4-dimethoxyphenyl)-7-(1-(2-(piperidin-1-yl)ethyl)-1,2,3,6-tetrahydropyridin-4-yl)imidazo[1,2-a]pyridine] |  |  |  |  |  | 0.0295 µM |  |  |  |  |  | 7 µM | 6 µM | 7.3 µM | 8.7 µM | 5.9 µM |  |
| COc1cc(OC)c(-c2cn3ccc(N4CCN(S(C)(=O)=O)CC4)cc3n2)cc1Cl [Example 169, 2-(5-chloro-2,4-dimethoxyphenyl)-7-[4-(methylsulfonyl)piperazin-1-yl]imidazo[1,2-a]pyridine] |  |  |  |  |  | 0.0101 µM |  |  |  |  |  | 1.8 µM | 2.8 µM | 2.1 µM | 4.7 µM | 2.2 µM |  |
| COc1cc(OC)c(-c2cn3cc(Br)c(N4CCNCC4)nc3n2)cc1Cl [Example 220, 6-bromo-2-(5-chloro-2,4-dimethoxyphenyl)-7-(piperazin-1-yl)imidazo[1,2-a]pyrimidine] |  |  |  |  |  | 0.0262 µM | 2.6 µM | 3.1 µM | 2.4 µM | 3.1 µM | 2.4 µM |  |  |  |  |  |  |
| COc1cc(OC)c(-c2cn3ccc(N4CCC(O)CC4)cc3n2)cc1Cl [Example 231, 1-(2-(5-chloro-2,4-dimethoxyphenyl)imidazo[1,2-a]pyridine-7-yl)piperidin-4-ol] |  |  |  |  |  | 0.00488 µM | 10 µM | 9.1 µM | 10 µM | 6.7 µM | 3.9 µM |  |  |  |  |  |  |
| COc1cc(OC)c(-c2cn3ccc(N4CC[C@H](NC(=O)OC(C)(C)C)C4)cc3n2)cc1Cl [Example 44, (S)-tert-butyl (1-(2-(5-chloro-2,4-dimethoxyphenyl)imidazo[1,2-a]pyridin-7-yl)-pyrrolidin-3-yl)carbamate] |  |  |  |  |  | 0.00982 µM |  |  |  |  |  | 3 µM | 2.2 µM | 3.4 µM | 1.1 µM | 1.6 µM |  |
| COc1cc(OC)c(-c2cn3ccc(N4CCCC4)nc3n2)cc1Br [Example 3, 2-(5-bromo-2,4-dimethoxyphenyl)-7-(pyrrolidin-1-yl)imidazo[1,2-a]pyrimidine] |  |  |  |  |  | 0.00858 µM |  |  |  |  |  | 11 µM | 6.8 µM | 8.1 µM | 7.4 µM | 7.1 µM |  |
| COc1cc(OC)c(-c2cn3ccc(-c4ccc(NCc5ncc[nH]5)cc4)cc3n2)cc1Cl [Example 270, N-((1H-imidazol-2-yl)methyl)-4-(2-(5-chloro-2,4-dimethoxyphenyl)-imidazo[1,2-a]pyridin-7-yl)aniline] |  |  |  |  |  | 0.0199 µM | 0.99 µM | 1.7 µM | 1 µM | 0.89 µM | 0.45 µM |  |  |  |  |  |  |
| COc1cc(OC)c(-c2cn3ccc(N4CCC(NC(=O)OC(C)(C)C)C4)cc3n2)cc1C#N (stereo not drawn) [Example 71, tert-butyl {1-[2-(5-cyano-2,4-dimethoxyphenyl)imidazo[1,2-a]pyridin-7-yl]pyrrolidin-3-yl}carbamate] |  |  |  |  |  | 0.0075 µM |  |  |  |  |  | 2.6 µM | 3.2 µM | 1.9 µM | 1.6 µM | 2 µM |  |
| COc1cc(OC)c(-c2cn3ccc(N4CCC(N5CCCS5(=O)=O)CC4)cc3n2)cc1Cl [Example 182, 2-{1-[2-(5-chloro-2,4-dimethoxyphenyl)imidazo[1,2-a]pyridin-7-yl]piperidin-4-yl}isothiazolidine 1,1-dioxide] |  |  |  |  |  | 0.00697 µM |  |  |  |  |  | 1.7 µM | 2.6 µM | 1.9 µM | 1.8 µM | 1.5 µM |  |
| COC(=O)N[C@H]1CC[C@H](Nc2ccn3cc(-c4cc(Cl)c(OC)cc4OC)nc3c2)CC1 [Example 277, (methyl-4-((2-(5-chloro-2,4-dimethoxyphenyl)imidazo[1,2-a]pyridin-7-yl)amino)-trans-cyclohexyl)carbamate] |  |  |  |  |  | 0.00524 µM | 0.98 µM | 0.78 µM | 0.8 µM | 0.7 µM | 0.93 µM |  |  |  |  |  |  |
| COc1cc(OC)c(-c2cn3ccc(N4CCC(CCN)CC4)cc3n2)cc1Cl [Example 72, 2-(1-(2-(5-chloro-2,4-dimethoxyphenyl)imidazo[1,2-a]pyridine-7-yl)piperidin-4-yl)ethanamine dihydrochloride] | 5.3 µM | 7 µM | 4.9 µM | 3.7 µM | 2.5 µM |  |  |  |  |  |  |  |  |  |  |  | 0.00875 µM |
| COc1cc(OC)c(-c2cn3ccc(NC(=O)CNC(=O)OC(C)(C)C)cc3n2)cc1Cl [Example 161, tert-butyl (2-((2-(5-chloro-2,4-dimethoxyphenyl)imidazo[1,2-a]pyridin-7-yl)-amino)-2-oxoethyl)carbamate] |  |  |  |  |  | 0.0379 µM |  |  |  |  |  | 8.8 µM | 7.8 µM | 7 µM | 8.4 µM | 8.7 µM |  |
| COc1cc(OC)c(-c2cn3ccc(N4CCC(NS(C)(=O)=O)CC4)nc3n2)cc1Cl [Example 192, N-(1-(2-(5-chloro-2,4-dimethoxyphenyl)imidazo[1,2-a]pyrimidin-7-yl)-piperidin-4-yl)methanesulfonamide] |  |  |  |  |  | 0.0148 µM |  |  |  |  |  | 10 µM | 5.3 µM | 10 µM | 5.1 µM | 10 µM |  |
| COc1cc(OC)c(-c2cn3ccc(OC4CCN(S(=O)(=O)c5cccs5)CC4)cc3n2)cc1Cl [Example 280, 2-(5-chloro-2,4-dimethoxyphenyl)-7-((1-(thiophen-2-ylsulfonyl)piperidin-4-yl)oxy)imidazo[1,2-a]pyridine] |  |  |  |  |  | 0.0711 µM | 2 µM | 1.7 µM | 1.9 µM | 1.6 µM | 0.8 µM |  |  |  |  |  |  |
| COc1cc(OC)c(-c2cn3ccc(N4CCC(CCNC(=O)OC(C)(C)C)CC4)nc3n2)cc1Cl [Example 61, tert-butyl (2-{1-[2-(5-chloro-2,4-dimethoxyphenyl)imidazo[1,2-a]pyrimidin-7-yl]piperidin-4-yl}-ethyl)carbamate] |  |  |  |  |  | 0.00831 µM |  |  |  |  |  | 4.5 µM | 4.3 µM | 4.1 µM | 3.4 µM | 1.7 µM |  |
| COc1cc(OC)c(-c2cn3ccc(N4CCN(c5ccccn5)CC4)cc3n2)cc1Cl [Example 276, 2-(5-chloro-2,4-dimethoxyphenyl)-7-(4-(pyridin-2-yl)piperazin-1-yl)-imidazo[1,2-a]pyridine] |  |  |  |  |  | 0.00774 µM | 1.2 µM | 1.1 µM | 0.71 µM | 0.69 µM | 1.2 µM |  |  |  |  |  |  |
| COc1cc(OC)c(-c2cn3ccc(N4CCN(Cc5ccncc5)CC4)cc3n2)cc1Cl [Example 292, 2-(5-chloro-2,4-dimethoxyphenyl)-7-(4-(pyridin-4-ylmethyl)piperazin-1-yl)imidazo[1,2-a]pyridine] |  |  |  |  |  | 0.00637 µM | 1.2 µM | 1.3 µM | 1.3 µM | 1.2 µM | 0.68 µM |  |  |  |  |  |  |
| COc1cc(OC)c(-c2cn3ccc(NC(=O)[C@H](C(C)C)N(C)C)cc3n2)cc1Cl [Example 272, (S)—N-(2-(5-chloro-2,4-dimethoxyphenyl)imidazo[1,2-a]pyridin-7-yl)-2-(dimethylamino)-3-methylbutanamide] | 0.86 µM | 0.47 µM | 2.9 µM | 0.45 µM | 0.98 µM | 0.0961 µM |  |  |  |  |  |  |  |  |  |  |  |
| COc1cc(OC)c(-c2cn3ccc(N4CCN(c5nccc(N)n5)CC4)cc3n2)cc1Cl [Example 286, 2-(4-(2-(5-chloro-2,4-dimethoxyphenyl)imidazo[1,2-a]pyridin-7-yl)piperazin-1-yl)-pyrimidin-4-amine] |  |  |  |  |  | 0.00881 µM | 0.65 µM | 0.71 µM | 0.56 µM | 0.7 µM | 0.63 µM |  |  |  |  |  |  |
